# Laboratory results as given in article PMC5090035, “A Class 1 Histone Deacetylase with Potential as an Antifungal Target” (mBio, 2016).
# How the values were obtained:
# [1] = molecular target: T1, RpdA (TAP-tagged wild-type RpdA) (Aspergillus nidulans, UniProt G5EB64); experiment: HDAC assay, release of [3H]acetate from prelabeled histones; format: biochemical; details: read-out: % inhibition at 50 nM
# T1 construct: gene ANIA_04493; full-length, C12 motif present; TAP-tagged, expressed under xylPp in A. nidulans, IgG Sepharose, eluted by TEV cleavage (CBP part kept)
# [2] = molecular target: T1, RpdA (TAP-tagged wild-type RpdA); experiment: as above; format: biochemical; details: [3H]acetate-prelabeled chicken reticulocyte histones as substrate; 1 h, 25 C; inhibitor at 50 and 500 nM
# T1 sequence (G5EB64 1-687): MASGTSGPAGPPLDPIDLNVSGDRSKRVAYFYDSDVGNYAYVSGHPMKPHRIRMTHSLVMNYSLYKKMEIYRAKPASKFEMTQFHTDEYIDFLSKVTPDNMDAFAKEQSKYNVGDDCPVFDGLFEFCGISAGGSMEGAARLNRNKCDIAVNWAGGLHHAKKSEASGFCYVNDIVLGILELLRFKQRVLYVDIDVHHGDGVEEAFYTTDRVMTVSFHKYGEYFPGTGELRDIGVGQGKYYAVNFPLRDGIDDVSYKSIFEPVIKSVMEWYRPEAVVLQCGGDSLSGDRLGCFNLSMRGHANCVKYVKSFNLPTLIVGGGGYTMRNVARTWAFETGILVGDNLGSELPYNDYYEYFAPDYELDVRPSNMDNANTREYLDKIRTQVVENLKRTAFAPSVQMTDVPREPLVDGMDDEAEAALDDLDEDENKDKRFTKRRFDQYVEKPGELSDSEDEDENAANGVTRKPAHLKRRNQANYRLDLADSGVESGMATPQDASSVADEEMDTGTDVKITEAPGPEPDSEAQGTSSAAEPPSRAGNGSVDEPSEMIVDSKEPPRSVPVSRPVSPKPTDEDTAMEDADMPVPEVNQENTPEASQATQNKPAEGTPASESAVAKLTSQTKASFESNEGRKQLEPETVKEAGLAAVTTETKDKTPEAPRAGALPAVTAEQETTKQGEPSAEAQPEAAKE
inhibition at 0.05 µM [1] [%],% inhibition at 50 and 500 nM [2],SMILES
70,–,CC(/C=C/C(=O)NO)=C\[C@@H](C)C(=O)c1ccc(N(C)C)cc1 [trichostatin A]
–,SAHA showed only weak inhibition of RpdA,O=C(CCCCCCC(=O)Nc1ccccc1)NO [vorinostat]
